{"source": "paper PMC5524711", "about": "(Scientific Reports, 2017)", "key": {"[1]": {"target": "GABAA receptors, benzodiazepine site (washed rat brain membranes)", "test": "[3H]Flunitrazepam binding and displacement", "settings": "read-out: [3H]Flunitrazepam Binding, displacement, 1 nM [3H]flunitrazepam, 10 µM GABA", "method": "Membrane Preparation. These experiments were performed at the University of Colorado Health Sciences Center, Denver, CO. Experiments were approved by the Institutional Animal Care and Use Committee (IACUC) of the University of Colorado, Denver, and were performed in accordance with the NIH Guide for the Care and Use of Laboratory Animals. Male Sprague-Dawley rats (200–250 g) were maintained in an AAALAC-accredited facility and sacrificed by CO2 exposure and decapitation. Brains were removed, and membranes were prepared from the forebrain as described previously. Ligand binding assay. […] Bound and free ligand were separated by rapid filtration under vacuum over Whatman GF/B filters presoaked in buffer in a 24 port Brandel Cell Harvester. Filters were washed with 2 × 5 ml of ice-cold HEPES buffer and dried prior to measurement of bound radioactivity by scintillation counting (Beckman LS3800 scintillation counter) using Ultima Gold XR scintillation cocktail. Analysis of ligand binding data."}, "[2]": {"target": "T1, α1β2γ2 GABAA receptors (UniProt P18508+P47870+P62813)", "T1 construct": "expressed in transfected cells; host or cells: Xenopus laevis oocytes (cRNA injection)", "T1 sequence (P62813 28-455)": "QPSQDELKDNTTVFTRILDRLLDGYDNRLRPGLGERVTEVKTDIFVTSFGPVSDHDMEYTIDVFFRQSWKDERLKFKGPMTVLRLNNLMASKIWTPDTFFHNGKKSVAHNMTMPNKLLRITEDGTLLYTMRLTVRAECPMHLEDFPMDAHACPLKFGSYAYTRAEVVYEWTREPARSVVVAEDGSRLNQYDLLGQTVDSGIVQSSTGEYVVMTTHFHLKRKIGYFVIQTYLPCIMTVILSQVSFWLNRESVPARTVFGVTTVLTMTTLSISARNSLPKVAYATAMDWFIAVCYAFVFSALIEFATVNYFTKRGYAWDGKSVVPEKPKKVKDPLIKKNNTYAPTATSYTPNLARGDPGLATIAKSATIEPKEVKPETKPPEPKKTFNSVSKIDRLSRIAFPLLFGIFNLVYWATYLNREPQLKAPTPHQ", "T1 sequence (P47870 26-474 isoform P47870-1 limits assumed)": "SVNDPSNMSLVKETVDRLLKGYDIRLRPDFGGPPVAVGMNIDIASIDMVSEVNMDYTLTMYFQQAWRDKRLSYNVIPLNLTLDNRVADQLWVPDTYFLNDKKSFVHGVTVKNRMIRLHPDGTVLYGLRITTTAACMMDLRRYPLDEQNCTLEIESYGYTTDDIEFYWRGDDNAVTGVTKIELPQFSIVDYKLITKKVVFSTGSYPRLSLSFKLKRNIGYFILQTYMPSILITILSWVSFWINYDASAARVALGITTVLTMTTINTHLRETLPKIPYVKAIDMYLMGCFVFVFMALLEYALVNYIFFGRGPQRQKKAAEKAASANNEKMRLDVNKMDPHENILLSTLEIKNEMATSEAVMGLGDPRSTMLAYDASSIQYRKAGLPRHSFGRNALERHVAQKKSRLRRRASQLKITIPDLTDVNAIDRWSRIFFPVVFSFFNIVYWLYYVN", "T1 sequence (P18508 39-466)": "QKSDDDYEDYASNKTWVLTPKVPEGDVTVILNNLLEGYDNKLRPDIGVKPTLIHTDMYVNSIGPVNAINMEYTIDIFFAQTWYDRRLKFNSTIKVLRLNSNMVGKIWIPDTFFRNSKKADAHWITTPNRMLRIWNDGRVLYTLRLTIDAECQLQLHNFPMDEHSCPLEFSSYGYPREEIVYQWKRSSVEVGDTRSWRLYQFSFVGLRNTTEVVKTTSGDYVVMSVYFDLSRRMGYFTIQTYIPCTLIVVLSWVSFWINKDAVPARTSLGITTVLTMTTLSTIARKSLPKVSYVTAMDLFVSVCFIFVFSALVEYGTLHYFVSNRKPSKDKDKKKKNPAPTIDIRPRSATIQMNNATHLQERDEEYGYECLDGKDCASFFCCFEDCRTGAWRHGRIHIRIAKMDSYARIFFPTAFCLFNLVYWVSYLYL", "test": "Xenopus oocyte two-electrode voltage clamp", "format": "cell-based, rat and human"}, "[3]": {"target": "GABAA receptors (washed rat brain membranes)", "test": "Displacement of [3H]muscimol binding (PDSP)", "settings": "5 nM [3H]muscimol", "method": "Rat brain membranes were prepared as described in the Protocol Manual on the PDSP website (https://pdspdb.unc.edu/pdspWeb/). […] The final concentration of [^3H]muscimol in the assay mixture was 5 nM. […] Analysis of ligand binding data."}, "[4]": {"target": "T2, α4β3δ GABAA receptors (UniProt P18506+P48169+P63079)", "T2 construct": "expressed in transfected cells; host or cells: Xenopus laevis oocytes (cRNA injection)", "test": "Xenopus oocyte two-electrode voltage clamp", "format": "cell-based, rat", "settings": "a4b3d; [Zn++] 1 µM"}, "[5]": {"target": "T3, α1β3γ2 GABAA receptors (Rattus norvegicus, UniProt P18508+P62813+P63079)", "T3 construct": "expressed in transfected cells; host or cells: Xenopus laevis oocytes (cRNA injection)", "T3 sequence (P62813 28-455)": "as the sequence (P62813 28-455) above", "T3 sequence (P63079 26-473)": "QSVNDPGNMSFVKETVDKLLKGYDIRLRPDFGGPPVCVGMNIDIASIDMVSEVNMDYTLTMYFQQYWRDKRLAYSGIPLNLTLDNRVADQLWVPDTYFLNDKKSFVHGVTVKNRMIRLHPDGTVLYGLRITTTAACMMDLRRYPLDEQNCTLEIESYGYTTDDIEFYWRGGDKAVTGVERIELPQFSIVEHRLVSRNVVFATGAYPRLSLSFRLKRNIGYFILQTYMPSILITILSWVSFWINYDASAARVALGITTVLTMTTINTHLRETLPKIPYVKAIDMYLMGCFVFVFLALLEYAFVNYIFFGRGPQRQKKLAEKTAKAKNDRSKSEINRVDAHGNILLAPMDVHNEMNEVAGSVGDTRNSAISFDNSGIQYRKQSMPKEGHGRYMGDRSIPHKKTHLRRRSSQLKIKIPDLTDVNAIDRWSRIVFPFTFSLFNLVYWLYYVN", "T3 sequence (P18508 39-466)": "as the sequence (P18508 39-466) above", "test": "Xenopus oocyte two-electrode voltage clamp", "format": "cell-based", "settings": "a1b3g2"}, "[6]": {"target": "T4, α1β1γ2 GABAA receptors (Rattus norvegicus, UniProt P15431+P18508+P62813)", "T4 construct": "expressed in transfected cells; host or cells: Xenopus laevis oocytes (cRNA injection)", "T4 sequence (P62813 28-455)": "as the sequence (P62813 28-455) above", "T4 sequence (P15431 26-474)": "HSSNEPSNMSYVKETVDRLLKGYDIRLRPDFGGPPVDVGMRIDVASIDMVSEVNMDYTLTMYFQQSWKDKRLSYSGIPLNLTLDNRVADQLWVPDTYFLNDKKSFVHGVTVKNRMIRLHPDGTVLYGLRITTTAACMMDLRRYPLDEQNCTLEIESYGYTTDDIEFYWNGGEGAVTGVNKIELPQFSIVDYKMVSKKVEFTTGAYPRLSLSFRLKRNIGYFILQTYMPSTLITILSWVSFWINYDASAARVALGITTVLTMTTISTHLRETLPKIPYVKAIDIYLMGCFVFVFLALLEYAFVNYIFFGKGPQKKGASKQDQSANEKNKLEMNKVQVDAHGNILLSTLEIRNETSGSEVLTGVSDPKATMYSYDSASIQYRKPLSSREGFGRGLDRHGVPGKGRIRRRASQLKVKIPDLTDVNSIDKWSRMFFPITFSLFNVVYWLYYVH", "T4 sequence (P18508 39-466)": "as the sequence (P18508 39-466) above", "test": "Xenopus oocyte two-electrode voltage clamp", "format": "cell-based", "settings": "a1b1g2"}, "[7]": {"target": "T5, α5β3γ2 GABAA receptors (UniProt P18508+P31644+P63079)", "T5 construct": "expressed in transfected cells; host or cells: Xenopus laevis oocytes (cRNA injection)", "T5 sequence (P31644 32-462)": "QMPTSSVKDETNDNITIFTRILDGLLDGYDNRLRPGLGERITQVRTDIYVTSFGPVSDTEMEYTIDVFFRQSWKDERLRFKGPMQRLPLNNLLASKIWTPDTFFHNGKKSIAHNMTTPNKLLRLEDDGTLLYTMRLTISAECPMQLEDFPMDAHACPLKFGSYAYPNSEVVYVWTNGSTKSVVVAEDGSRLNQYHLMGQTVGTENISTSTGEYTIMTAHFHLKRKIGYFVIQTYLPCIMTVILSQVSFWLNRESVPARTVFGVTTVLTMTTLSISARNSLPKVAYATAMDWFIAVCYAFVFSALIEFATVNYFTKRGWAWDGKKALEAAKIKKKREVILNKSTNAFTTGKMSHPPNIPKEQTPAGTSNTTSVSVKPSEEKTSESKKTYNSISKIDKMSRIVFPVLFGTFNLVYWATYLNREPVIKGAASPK", "T5 sequence (P63079 26-473)": "as the sequence (P63079 26-473) above", "T5 sequence (P18508 39-466)": "as the sequence (P18508 39-466) above", "test": "Xenopus oocyte two-electrode voltage clamp", "format": "cell-based, rat", "settings": "a5b3g2"}, "[8]": {"target": "T6, α1β2 GABAA receptors (UniProt P47870+P62813)", "T6 construct": "expressed in transfected cells; host or cells: Xenopus laevis oocytes (cRNA injection)", "T6 sequence (P62813 28-455)": "as the sequence (P62813 28-455) above", "T6 sequence (P47870 26-474 isoform P47870-1 limits assumed)": "as the sequence (P47870 26-474 isoform P47870-1 limits assumed) above", "test": "Xenopus oocyte two-electrode voltage clamp", "format": "cell-based, rat and human", "settings": "a1b2"}, "[9]": {"target": "T7, α1β3 GABAA receptors (Rattus norvegicus, UniProt P62813+P63079)", "T7 construct": "expressed in transfected cells; host or cells: Xenopus laevis oocytes (cRNA injection)", "T7 sequence (P62813 28-455)": "as the sequence (P62813 28-455) above", "T7 sequence (P63079 26-473)": "as the sequence (P63079 26-473) above", "test": "Xenopus oocyte two-electrode voltage clamp", "format": "cell-based", "settings": "a1b3"}, "[10]": {"target": "T8, α1β2(N265S)γ2 GABAA receptors (UniProt P18508+P47870+P62813, N289S)", "T8 construct": "expressed in transfected cells; host or cells: Xenopus laevis oocytes (cRNA injection)", "T8 sequence (P62813 28-455)": "as the sequence (P62813 28-455) above", "T8 sequence (P47870 25-474 isoform P47870-1 N289S limits assumed)": "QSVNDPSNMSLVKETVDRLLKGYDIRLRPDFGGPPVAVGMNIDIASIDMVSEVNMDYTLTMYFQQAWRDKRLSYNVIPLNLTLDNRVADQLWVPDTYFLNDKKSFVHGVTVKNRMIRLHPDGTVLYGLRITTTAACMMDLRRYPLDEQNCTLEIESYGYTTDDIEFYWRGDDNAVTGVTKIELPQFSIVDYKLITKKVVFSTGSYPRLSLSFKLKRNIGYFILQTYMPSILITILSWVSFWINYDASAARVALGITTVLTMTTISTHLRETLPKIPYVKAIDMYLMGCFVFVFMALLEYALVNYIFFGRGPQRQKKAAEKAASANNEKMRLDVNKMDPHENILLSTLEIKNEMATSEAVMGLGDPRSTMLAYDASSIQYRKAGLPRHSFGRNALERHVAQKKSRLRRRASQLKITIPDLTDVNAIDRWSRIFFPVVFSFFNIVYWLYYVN", "T8 sequence (P18508 39-466)": "as the sequence (P18508 39-466) above", "test": "Xenopus oocyte two-electrode voltage clamp", "format": "cell-based, rat and human", "settings": "a1b2(N265S)g2"}, "[11]": {"target": "T9, α1β3δ GABAA receptors (Rattus norvegicus, UniProt P18506+P62813+P63079)", "T9 construct": "expressed in transfected cells; host or cells: Xenopus laevis oocytes (cRNA injection)", "T9 sequence (P62813 28-455)": "as the sequence (P62813 28-455) above", "T9 sequence (P63079 26-473)": "as the sequence (P63079 26-473) above", "T9 sequence (P18506 17-449 limits assumed)": "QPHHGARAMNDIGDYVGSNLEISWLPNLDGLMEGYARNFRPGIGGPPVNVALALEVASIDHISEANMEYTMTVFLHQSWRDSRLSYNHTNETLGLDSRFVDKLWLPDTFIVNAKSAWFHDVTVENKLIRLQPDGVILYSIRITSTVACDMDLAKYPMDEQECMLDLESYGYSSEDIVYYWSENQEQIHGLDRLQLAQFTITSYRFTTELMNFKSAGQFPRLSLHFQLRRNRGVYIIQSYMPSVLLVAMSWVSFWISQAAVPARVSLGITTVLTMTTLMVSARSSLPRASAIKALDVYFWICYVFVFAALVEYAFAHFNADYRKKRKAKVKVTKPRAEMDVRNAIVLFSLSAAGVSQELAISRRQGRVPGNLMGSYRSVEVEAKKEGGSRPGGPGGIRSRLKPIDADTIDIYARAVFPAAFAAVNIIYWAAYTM", "test": "Xenopus oocyte two-electrode voltage clamp", "format": "cell-based", "settings": "a1b3d"}, "[12]": {"target": "T10, α1β2γ1 GABAA receptors (UniProt P47870+P62813+Q8N1C3)", "T10 construct": "expressed in transfected cells; host or cells: Xenopus laevis oocytes (cRNA injection); γ1 cDNA synthesized by GenScript in pGEMHE", "T10 sequence (P62813 28-455)": "as the sequence (P62813 28-455) above", "T10 sequence (P47870 26-474 isoform P47870-1 limits assumed)": "as the sequence (P47870 26-474 isoform P47870-1 limits assumed) above", "T10 sequence (Q8N1C3 36-465)": "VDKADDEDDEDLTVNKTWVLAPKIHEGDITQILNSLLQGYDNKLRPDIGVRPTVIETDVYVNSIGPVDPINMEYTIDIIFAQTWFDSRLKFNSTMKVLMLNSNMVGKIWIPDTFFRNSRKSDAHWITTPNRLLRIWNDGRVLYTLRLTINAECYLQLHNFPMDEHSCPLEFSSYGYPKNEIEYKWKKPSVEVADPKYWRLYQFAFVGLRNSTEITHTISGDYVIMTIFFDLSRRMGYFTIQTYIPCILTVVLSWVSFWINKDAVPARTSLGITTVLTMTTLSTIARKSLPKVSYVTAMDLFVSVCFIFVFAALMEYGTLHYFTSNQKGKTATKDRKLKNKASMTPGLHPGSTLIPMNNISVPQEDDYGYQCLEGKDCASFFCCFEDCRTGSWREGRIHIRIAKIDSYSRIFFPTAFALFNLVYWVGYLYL", "test": "Xenopus oocyte two-electrode voltage clamp", "format": "cell-based, rat and human", "settings": "a1b2g1"}, "[13]": {"target": "T11, α5β3 GABAA receptors (UniProt P31644+P63079)", "T11 construct": "expressed in transfected cells; host or cells: Xenopus laevis oocytes (cRNA injection)", "T11 sequence (P31644 32-462)": "as the sequence (P31644 32-462) above", "T11 sequence (P63079 26-473)": "as the sequence (P63079 26-473) above", "test": "Xenopus oocyte two-electrode voltage clamp", "format": "cell-based, rat", "settings": "a5b3"}, "[14]": {"target": "T12, α4β3γ2 GABAA receptors (UniProt P18508+P48169+P63079)", "T12 construct": "expressed in transfected cells; host or cells: Xenopus laevis oocytes (cRNA injection)", "test": "Xenopus oocyte two-electrode voltage clamp", "format": "cell-based, rat", "settings": "a4b3g2; [Zn++] 1 µM"}, "[15]": {"target": "T8, α1β2(N265S)γ2 GABAA receptors", "design": "method as in PMID 19741491", "settings": "concentrations up to 1 mM; cited from earlier work"}, "[16]": {"target": "T2, α4β3δ GABAA receptors", "design": "method as in Borghese et al., 2006", "settings": "a4b3d; ref Borghese et al., 2006; cited from earlier work"}, "[17]": {"target": "T12, α4β3γ2 GABAA receptors", "design": "method as in Borghese et al., 2006", "settings": "a4b3g2; ref Borghese et al., 2006; cited from earlier work"}, "[18]": {"test_system": "medial CeA neurons", "test": "Brain slice whole cell patch clamp recording", "format": "cell-based, rat", "settings": "100 μM, focally applied following DCUK-OEt (0.5 µM)", "experimental": "Slices were prepared from brains of 5 adult male Wistar rats (250–350 g) as described by Herman et al.[56]. A single slice was transferred to a recording chamber mounted on the stage of an upright microscope (Olympus BX50WI).\nNeurons were visualized and whole cell patch clamp recordings were made as previously described[56]. Series resistance was typically <15 MΩ and was continuously monitored with a hyperpolarizing 10 mV pulse. Electrophysiological properties of cells were determined by pClamp 10 Clampex software online during voltage-clamp recording using a 5 mV pulse delivered after breaking into the cell. The resting membrane potential was determined online after breaking into the cell using the zero current (I = 0) recording configuration and the liquid junction potential was included in the determination. […]\nFrequency, amplitude and decay of spontaneous inhibitory postsynaptic currents (sIPSCs) were analyzed and visually confirmed using a semi-automated threshold based mini detection software (Mini Analysis, Synaptosoft Inc.). Averages of sIPSC characteristics were determined from baseline and experimental drug conditions containing a minimum of 60 events (time period of analysis varied as a product of individual event frequency) and decay kinetics were determined using exponential curve fittings and reported as decay time (ms). […]"}}, "note": "Where two headings read alike, the source gives them in different places.", "data": [{"compound": "O=C(O)c1cc(NC(=O)N(c2ccccc2)c2ccccc2)c2c(Cl)cc(Cl)cc2n1", "note": "[DCUKA, 5,7 dichloro-4-([diphenylcarbamoyl]amino) quinoline-2-carboxylic acid]", "values": [{"measurement": "Ki", "setting": "[1]", "result": "> 10", "unit": "µM"}, {"measurement": "Effect of co-applied flumazenil on DCUK actions on α1β2γ2 GABAA receptors", "setting": "[2]; 20 μM flumazenil, EC10 GABA", "result": "did not significantly affect"}, {"measurement": "Effect on submaximal GABA (EC10) currents", "setting": "[2]; oocytes containing α1β2γ2 GABAA receptors", "result": "enhanced"}, {"measurement": "Ki", "setting": "[3]", "result": "6.6 ± 1.9", "unit": "µM"}]}, {"compound": "[Zn+2]", "note": "[Zn++]", "values": [{"measurement": "% change of EC10 GABA responses by Zn++", "setting": "[4]", "result": "-31 ± 6", "unit": "%"}, {"measurement": "% change of EC10 GABA responses by Zn++", "setting": "[5]; [Zn++] 10 µM", "result": "-19 ± 4", "unit": "%"}, {"measurement": "% change of EC10 GABA responses by Zn++", "setting": "[6]; [Zn++] 100 µM", "result": "21 ± 3", "unit": "%"}, {"measurement": "% change of EC10 GABA responses by Zn++", "setting": "[7]; [Zn++] 10 µM", "result": "-29 ± 6", "unit": "%"}, {"measurement": "% change of EC10 GABA responses by Zn++", "setting": "[8]; [Zn++] 10 µM", "result": "-99 ± 1", "unit": "%"}, {"measurement": "% change of EC10 GABA responses by Zn++", "setting": "[9]; [Zn++] 1 µM", "result": "-85 ± 3", "unit": "%"}, {"measurement": "% change of EC10 GABA responses by Zn++", "setting": "[10]; [Zn++] 10 µM", "result": "10 ± 2", "unit": "%"}, {"measurement": "% change of EC10 GABA responses by Zn++", "setting": "[2]; a1b2g2, [Zn++] 10 µM", "result": "-9 ± 4", "unit": "%"}, {"measurement": "% change of EC10 GABA responses by Zn++", "setting": "[11]; [Zn++] 1 µM", "result": "-35 ± 1", "unit": "%"}, {"measurement": "% change of EC10 GABA responses by Zn++", "setting": "[12]; [Zn++] 10 µM", "result": "0.4 ± 1.4", "unit": "%"}, {"measurement": "% change of EC10 GABA responses by Zn++", "setting": "[13]; [Zn++] 10 µM", "result": "-89 ± 2", "unit": "%"}, {"measurement": "% change of EC10 GABA responses by Zn++", "setting": "[14]", "result": "-43 ± 4", "unit": "%"}]}, {"compound": "CCOC(=O)c1cncn1[C@H](C)c1ccccc1", "note": "[Etomidate, etomidate]", "values": [{"measurement": "GABA potentiating effect at α1β2(N265S)γ2", "setting": "[15]", "result": "no GABA potentiating effect"}]}, {"compound": "C[C@]12CC[C@@H](O)C[C@@H]1CC[C@@H]1[C@@H]2CC[C@]2(C)C(c3ccccc3)=CC[C@@H]12", "note": "[Compound 17PA, 17-phenyl-(3α,5α)-androst-16-en-3-ol]", "values": [{"measurement": "inhibition at 10 µM", "setting": "[2]; read-out: Inhibition by 17PA of DCUK-OEt potentiation of GABA actions", "result": 35, "unit": "%"}, {"measurement": "inhibition at 10 µM", "setting": "[2]; read-out: Inhibition by 17PA of the potentiating effects of allopregnanolone on GABA-induced currents", "result": 56, "unit": "%"}]}, {"compound": "NCCCC(=O)O", "note": "[GABA, γ-aminobutyric acid]", "values": [{"measurement": "nH (Hill coefficient of GABA concentration-response curve)", "setting": "[5]", "result": "1.33 ± 0.08"}, {"measurement": "nH (Hill coefficient of GABA concentration-response curve)", "setting": "[16]", "result": "0.84 ± 0.07"}, {"measurement": "nH (Hill coefficient of GABA concentration-response curve)", "setting": "[17]", "result": "1.01 ± 0.09"}, {"measurement": "nH (Hill coefficient of GABA concentration-response curve)", "setting": "[6]", "result": "0.76 ± 0.07"}, {"measurement": "nH (Hill coefficient of GABA concentration-response curve)", "setting": "[7]", "result": "0.93 ± 0.04"}, {"measurement": "nH (Hill coefficient of GABA concentration-response curve)", "setting": "[8]", "result": "1.19 ± 0.08"}, {"measurement": "nH (Hill coefficient of GABA concentration-response curve)", "setting": "[9]", "result": "0.97 ± 0.06"}, {"measurement": "nH (Hill coefficient of GABA concentration-response curve)", "setting": "[10]", "result": "0.81 ± 0.06"}, {"measurement": "nH (Hill coefficient of GABA concentration-response curve)", "setting": "[2]; a1b2g2", "result": "0.99 ± 0.03"}, {"measurement": "nH (Hill coefficient of GABA concentration-response curve)", "setting": "[11]", "result": "0.78 ± 0.07"}, {"measurement": "nH (Hill coefficient of GABA concentration-response curve)", "setting": "[12]", "result": "0.87 ± 0.06"}, {"measurement": "nH (Hill coefficient of GABA concentration-response curve)", "setting": "[13]", "result": "0.93 ± 0.07"}]}, {"compound": "COc1ccc(-c2ccc(=N)n(CCCC(=O)O)n2)cc1", "note": "[gabazine]", "values": [{"measurement": "Holding current when applied after DCUK-OEt", "setting": "[18]", "result": "significant reduction in holding current"}]}, {"compound": "CCOC(=O)c1ncn2c1CN(C)C(=O)c1cc(F)ccc1-2", "note": "[flumazenil]", "values": [{"measurement": "Potentiation of EC10 GABA responses", "setting": "[2]", "result": "51 ± 2", "unit": "%"}]}]}
